Test results: patent publication US20260224588A1, “BENZODIAZEPINONE-DERIVED INHIBITORS OF EGFR AND HER2” (The Research Foundation for the State University of New York, priority 2023, published 2026)
“Also recorded” adds a separate entry of the source.

Assays:
[1] = target: T1, RPS6KA5(Kin.Dom.1-N-terminal) (Homo sapiens, UniProt O75582); assay: KINOMEscan; assay type: binding; conditions: 1 μM of compound 4; read-out: POC
T1 construct: RPS6KA5(Kin.Dom.1-N-terminal); purchased Eurofins DiscoverX Corporation (KINOMEscan screening service)

[2] = target: T2, RET(M918T) (Homo sapiens, UniProt P07949, M918T); assay: KINOMEscan; assay type: binding; conditions: 1 μM of compound 4; read-out: POC
T2 construct: purchased Eurofins DiscoverX Corporation (KINOMEscan screening service)

[3] = target: ACVR2B (Homo sapiens, UniProt Q13705); assay: KINOMEscan; assay type: binding; conditions: 1 μM of compound 4; read-out: POC
[4] = target: LRRK2(G2019S) (Homo sapiens, UniProt Q5S007, G2019S); assay: KINOMEscan; assay type: binding; conditions: 1 μM of compound 4; read-out: POC
[5] = target: LATS1 (Homo sapiens, UniProt O95835); assay: KINOMEscan; assay type: binding; conditions: 1 μM of compound 4; read-out: POC
[6] = target: T3, FLT3(D835H) (Homo sapiens, UniProt P36888, D835H); assay: KINOMEscan; assay type: binding; conditions: 1 μM of compound 4; read-out: POC
T3 construct: purchased Eurofins DiscoverX Corporation

[7] = target: BMPR1B (Homo sapiens, UniProt O00238); assay: KINOMEscan; assay type: binding; conditions: 1 μM of compound 4; read-out: POC
[8] = target: PIK3CA(H1047Y) (Homo sapiens, UniProt P42336, H1047Y); assay: KINOMEscan; assay type: binding; conditions: 1 μM of compound 4; read-out: POC
[9] = target: T4, FGFR3 (Homo sapiens, UniProt P22607); assay: KINOMEscan; assay type: binding; conditions: 1 μM of compound 4; read-out: POC
T4 construct: purchased Eurofins DiscoverX Corporation

[10] = target: T5, EGFR(L747-T751del + Sins) (Homo sapiens, UniProt P00533, DEL747-750/T751S); assay: KINOMEscan; assay type: binding; conditions: 1 μM of compound 4; read-out: POC
T5 construct: purchased Eurofins DiscoverX (KINOMEscan service)

[11] = target: MEK1 (Homo sapiens, UniProt Q02750); assay: KINOMEscan; assay type: binding; conditions: 1 μM of compound 4; read-out: POC
[12] = target: MEK3 (Homo sapiens, UniProt P46734); assay: KINOMEscan; assay type: binding; conditions: 1 μM of compound 4; read-out: POC
[13] = target: T6, EPHA2 (Homo sapiens, UniProt P29317); assay: KINOMEscan; assay type: binding; conditions: 1 μM of compound 4; read-out: POC
T6 construct: purchased Eurofins DiscoverX (KINOMEscan service)

[14] = target: T7, SRPK2 (Homo sapiens, UniProt P78362); assay: KINOMEscan; assay type: binding; conditions: 1 μM of compound 4; read-out: POC
T7 construct: purchased Eurofins DiscoverX (KINOMEscan service)

[15] = target: PIK3CA(H1047L) (Homo sapiens, UniProt P42336, H1047L); assay: KINOMEscan; assay type: binding; conditions: 1 μM of compound 4; read-out: POC
[16] = target: T8, TNIK (Homo sapiens, UniProt Q9UKE5); assay: KINOMEscan; assay type: binding; conditions: 1 μM of compound 4; read-out: POC
T8 construct: purchased Eurofins DiscoverX Corporation

[17] = target: PIK3CB (Homo sapiens, UniProt P42338); assay: KINOMEscan; assay type: binding; conditions: 1 μM of compound 4; read-out: POC
[18] = target: CDK7 (Homo sapiens, UniProt P50613); assay: KINOMEscan; assay type: binding; conditions: 1 μM of compound 4; read-out: POC
[19] = target: PIK3CA(E542K) (Homo sapiens, UniProt P42336, E542K); assay: KINOMEscan; assay type: binding; conditions: 1 μM of compound 4; read-out: POC
[20] = target: LATS2 (Homo sapiens, UniProt Q9NRM7); assay: KINOMEscan; assay type: binding; conditions: 1 μM of compound 4; read-out: POC
[21] = target: T9, ABL1(T315I)-phosphorylated (Homo sapiens, UniProt P00519, T315I); assay: KINOMEscan; assay type: binding; conditions: 1 μM of compound 4; read-out: POC
T9 construct: purchased Eurofins DiscoverX Corporation

[22] = target: PFTK1 (Homo sapiens, UniProt O94921); assay: KINOMEscan; assay type: binding; conditions: 1 μM of compound 4; read-out: POC
[23] = test system: EGFR (delE746-A750) in HCC827 cells; assay: Western blotting of EGFR phosphorylation; assay type: cell-based, human; conditions: 6 hours treatment
Method: FIG. 2. […] All experiments performed after 6 hours treatments of inhibitors or DMSO controls and Western blots are representative of at least three independent experiments.
Western blotting. Cells were collected and lysed with lysis buffer (5M NaCl, 1M TRIS pH 8.0, 10% SDS, 10% Triton X-100 and a tablet of protease inhibitors) and processed for Western blotting analysis. Primary antibodies used; phospho-EGFR (Tyr1068; #2234, 1:1,000), EGFR (#4267; 1:1,000), phospho-AKT (Ser473; #4060, 1:1,000), AKT (#9272, 1:1,000), phospho-ERK1/2 (Thr202/Tyr204; #4370, 1:1,000), and ERK1/2 (#4695, 1:1,000) antibodies; were purchased from Cell Signaling Technology. Secondary Goat anti-rabbit IgG starbright blue 700 and Anti-tubulin hFAB Rhodamine Tubulin were purchased from Bio-rad.

[24] = target: T10, FLT3(N841I) (Homo sapiens, UniProt P36888, N841I); assay: KINOMEscan; assay type: binding; conditions: 1 μM of compound 4; read-out: POC
T10 construct: purchased Eurofins DiscoverX Corporation

[25] = target: T11, TAOK3 (Homo sapiens, UniProt Q9H2K8); assay: KINOMEscan; assay type: binding; conditions: 1 μM of compound 4; read-out: POC
T11 construct: purchased Eurofins DiscoverX Corporation

[26] = target: T12, PAK3 (Homo sapiens, UniProt O75914); assay: KINOMEscan; assay type: binding; conditions: 1 μM of compound 4; read-out: POC
T12 construct: purchased Eurofins DiscoverX Corporation (KINOMEscan)

[27] = target: T13, RET(V804L) (Homo sapiens, UniProt P07949, V804L); assay: KINOMEscan; assay type: binding; conditions: 1 μM of compound 4; read-out: POC
T13 construct: purchased Eurofins DiscoverX Corporation (KINOMEscan screening service)

[28] = target: T14, EGFR(E746-A750del) (Homo sapiens, UniProt P00533, DEL746-750); assay: KINOMEscan; assay type: binding; conditions: 1 μM of compound 4; read-out: POC
T14 construct: purchased Eurofins DiscoverX (KINOMEscan service)

[29] = target: T15, FGR (Homo sapiens, UniProt P09769); assay: KINOMEscan; assay type: binding; conditions: 1 μM of compound 4; read-out: POC
T15 construct: purchased Eurofins DiscoverX Corporation

[30] = target: DCAMKL2 (Homo sapiens, UniProt Q8N568); assay: KINOMEscan; assay type: binding; conditions: 1 μM of compound 4; read-out: POC
[31] = target: AMPK-alpha1 (Homo sapiens, UniProt Q13131); assay: KINOMEscan; assay type: binding; conditions: 1 μM of compound 4; read-out: POC
[32] = target: T16, EPHA8 (Homo sapiens, UniProt P29322); assay: KINOMEscan; assay type: binding; conditions: 1 μM of compound 4; read-out: POC
T16 construct: purchased Eurofins DiscoverX (KINOMEscan service)

Sequence of LATS1 (O95835 whole entry): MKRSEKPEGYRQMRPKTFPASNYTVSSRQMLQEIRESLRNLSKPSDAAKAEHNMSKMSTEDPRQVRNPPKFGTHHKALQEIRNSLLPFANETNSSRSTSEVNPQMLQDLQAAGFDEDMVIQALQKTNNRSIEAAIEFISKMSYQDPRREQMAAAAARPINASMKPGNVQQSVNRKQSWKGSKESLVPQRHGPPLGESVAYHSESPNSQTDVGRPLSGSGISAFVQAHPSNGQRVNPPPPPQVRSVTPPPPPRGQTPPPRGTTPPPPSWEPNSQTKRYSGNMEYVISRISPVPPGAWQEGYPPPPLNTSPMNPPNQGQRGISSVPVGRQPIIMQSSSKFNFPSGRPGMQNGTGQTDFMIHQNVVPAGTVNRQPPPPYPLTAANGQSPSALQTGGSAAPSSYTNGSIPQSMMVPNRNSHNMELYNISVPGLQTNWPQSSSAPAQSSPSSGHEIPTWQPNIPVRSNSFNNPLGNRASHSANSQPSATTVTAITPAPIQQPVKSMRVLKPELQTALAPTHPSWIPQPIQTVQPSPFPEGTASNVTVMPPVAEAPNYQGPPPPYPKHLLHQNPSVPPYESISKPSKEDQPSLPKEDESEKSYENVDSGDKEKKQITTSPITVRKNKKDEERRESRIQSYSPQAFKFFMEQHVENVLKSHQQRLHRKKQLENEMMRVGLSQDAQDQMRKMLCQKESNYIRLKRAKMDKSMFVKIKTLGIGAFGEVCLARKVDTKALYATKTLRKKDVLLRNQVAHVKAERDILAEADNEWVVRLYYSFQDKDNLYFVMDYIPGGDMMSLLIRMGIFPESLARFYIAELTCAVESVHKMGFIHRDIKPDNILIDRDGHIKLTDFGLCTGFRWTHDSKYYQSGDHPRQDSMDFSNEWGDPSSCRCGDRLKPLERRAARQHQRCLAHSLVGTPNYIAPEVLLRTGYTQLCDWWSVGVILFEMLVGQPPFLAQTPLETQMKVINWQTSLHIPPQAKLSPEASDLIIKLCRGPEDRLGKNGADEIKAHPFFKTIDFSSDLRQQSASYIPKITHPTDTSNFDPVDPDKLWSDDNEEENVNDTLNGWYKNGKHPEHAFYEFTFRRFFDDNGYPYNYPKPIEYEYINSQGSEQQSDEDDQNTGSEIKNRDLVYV
Sequence of PIK3CA(E542K) (P42336 whole entry E542K): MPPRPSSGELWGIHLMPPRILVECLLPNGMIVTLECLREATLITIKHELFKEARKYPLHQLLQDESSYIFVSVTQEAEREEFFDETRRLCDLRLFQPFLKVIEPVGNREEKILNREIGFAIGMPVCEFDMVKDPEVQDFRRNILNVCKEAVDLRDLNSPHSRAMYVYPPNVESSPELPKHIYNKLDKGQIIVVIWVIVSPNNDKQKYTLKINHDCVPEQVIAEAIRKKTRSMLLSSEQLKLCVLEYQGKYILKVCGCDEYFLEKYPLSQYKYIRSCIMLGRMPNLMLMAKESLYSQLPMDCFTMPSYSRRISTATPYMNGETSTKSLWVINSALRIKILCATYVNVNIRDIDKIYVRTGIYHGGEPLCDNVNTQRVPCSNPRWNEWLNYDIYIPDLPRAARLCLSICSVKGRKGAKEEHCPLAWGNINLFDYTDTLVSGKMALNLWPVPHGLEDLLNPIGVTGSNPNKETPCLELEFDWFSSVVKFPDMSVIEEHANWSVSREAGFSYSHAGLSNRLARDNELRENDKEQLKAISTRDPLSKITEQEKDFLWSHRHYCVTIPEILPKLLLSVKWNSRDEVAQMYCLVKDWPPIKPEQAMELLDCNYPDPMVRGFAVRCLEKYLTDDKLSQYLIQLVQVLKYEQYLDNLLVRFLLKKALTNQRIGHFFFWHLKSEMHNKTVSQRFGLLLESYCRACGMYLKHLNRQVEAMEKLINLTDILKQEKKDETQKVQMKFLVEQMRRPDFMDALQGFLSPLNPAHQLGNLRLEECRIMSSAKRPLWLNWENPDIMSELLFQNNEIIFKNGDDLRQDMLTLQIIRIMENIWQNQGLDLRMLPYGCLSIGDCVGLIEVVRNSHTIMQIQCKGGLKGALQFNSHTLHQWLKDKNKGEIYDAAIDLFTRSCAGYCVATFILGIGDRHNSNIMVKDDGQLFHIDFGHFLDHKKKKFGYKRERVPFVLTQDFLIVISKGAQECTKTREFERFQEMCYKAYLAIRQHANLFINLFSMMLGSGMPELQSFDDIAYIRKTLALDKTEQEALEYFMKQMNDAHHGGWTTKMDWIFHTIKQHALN
Sequence of MEK3 (P46734 whole entry): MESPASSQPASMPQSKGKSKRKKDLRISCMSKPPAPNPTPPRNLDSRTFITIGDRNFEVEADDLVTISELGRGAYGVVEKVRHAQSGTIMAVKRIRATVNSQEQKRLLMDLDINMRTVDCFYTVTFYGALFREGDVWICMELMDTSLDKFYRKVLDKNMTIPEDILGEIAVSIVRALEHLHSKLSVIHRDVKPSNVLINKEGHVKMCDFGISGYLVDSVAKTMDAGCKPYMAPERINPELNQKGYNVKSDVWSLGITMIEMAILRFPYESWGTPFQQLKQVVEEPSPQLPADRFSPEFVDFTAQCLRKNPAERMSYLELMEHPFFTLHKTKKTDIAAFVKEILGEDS
T7 sequence (P78362 whole entry): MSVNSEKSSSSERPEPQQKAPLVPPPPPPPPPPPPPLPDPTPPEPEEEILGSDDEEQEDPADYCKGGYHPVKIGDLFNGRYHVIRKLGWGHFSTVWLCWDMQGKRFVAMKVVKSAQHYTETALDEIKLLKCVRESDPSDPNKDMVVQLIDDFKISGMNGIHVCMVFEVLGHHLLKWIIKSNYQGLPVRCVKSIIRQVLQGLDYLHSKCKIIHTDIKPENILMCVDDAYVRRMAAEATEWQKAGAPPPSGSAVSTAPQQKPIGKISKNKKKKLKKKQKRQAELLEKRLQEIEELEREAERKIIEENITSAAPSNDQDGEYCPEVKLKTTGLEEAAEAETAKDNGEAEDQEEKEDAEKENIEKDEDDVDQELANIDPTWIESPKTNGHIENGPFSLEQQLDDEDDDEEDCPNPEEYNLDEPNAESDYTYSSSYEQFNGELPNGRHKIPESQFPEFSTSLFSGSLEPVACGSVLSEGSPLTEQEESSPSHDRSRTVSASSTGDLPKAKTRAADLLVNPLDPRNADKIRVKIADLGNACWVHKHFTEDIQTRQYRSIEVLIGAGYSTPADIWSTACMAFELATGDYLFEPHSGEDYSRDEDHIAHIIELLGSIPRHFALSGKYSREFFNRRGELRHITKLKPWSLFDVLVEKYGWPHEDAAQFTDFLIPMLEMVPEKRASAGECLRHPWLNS
T14 sequence (P00533 with tags, fused parts or gaps DEL746-750): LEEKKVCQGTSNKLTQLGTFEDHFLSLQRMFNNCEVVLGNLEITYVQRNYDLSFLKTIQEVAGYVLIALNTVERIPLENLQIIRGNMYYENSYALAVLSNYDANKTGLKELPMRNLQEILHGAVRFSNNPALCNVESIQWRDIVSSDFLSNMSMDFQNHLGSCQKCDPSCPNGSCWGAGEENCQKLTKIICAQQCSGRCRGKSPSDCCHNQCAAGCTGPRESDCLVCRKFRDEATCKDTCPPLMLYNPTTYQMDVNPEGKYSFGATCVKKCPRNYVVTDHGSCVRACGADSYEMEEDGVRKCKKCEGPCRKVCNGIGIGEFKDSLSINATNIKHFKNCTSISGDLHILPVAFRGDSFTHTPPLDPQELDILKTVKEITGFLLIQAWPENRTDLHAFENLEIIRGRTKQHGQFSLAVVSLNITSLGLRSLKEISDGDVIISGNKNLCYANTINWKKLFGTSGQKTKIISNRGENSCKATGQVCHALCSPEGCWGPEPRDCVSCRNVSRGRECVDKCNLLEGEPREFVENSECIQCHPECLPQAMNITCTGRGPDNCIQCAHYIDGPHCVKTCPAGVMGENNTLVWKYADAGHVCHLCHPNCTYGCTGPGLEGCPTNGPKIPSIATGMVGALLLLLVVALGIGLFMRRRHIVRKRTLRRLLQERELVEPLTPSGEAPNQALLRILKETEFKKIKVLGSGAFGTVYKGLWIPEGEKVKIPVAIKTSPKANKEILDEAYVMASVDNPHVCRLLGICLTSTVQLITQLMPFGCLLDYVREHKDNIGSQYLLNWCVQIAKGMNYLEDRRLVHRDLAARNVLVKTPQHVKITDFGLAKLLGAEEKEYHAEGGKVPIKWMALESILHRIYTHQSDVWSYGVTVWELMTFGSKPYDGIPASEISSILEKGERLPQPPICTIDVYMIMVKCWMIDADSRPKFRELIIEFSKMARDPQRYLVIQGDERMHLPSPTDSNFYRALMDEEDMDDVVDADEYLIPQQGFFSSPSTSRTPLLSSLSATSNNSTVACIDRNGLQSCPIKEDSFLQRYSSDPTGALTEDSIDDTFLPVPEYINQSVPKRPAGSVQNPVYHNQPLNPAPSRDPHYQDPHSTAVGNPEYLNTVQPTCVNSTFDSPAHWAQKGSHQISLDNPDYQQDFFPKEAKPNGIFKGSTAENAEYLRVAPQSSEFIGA
Sequence of AMPK-alpha1 (Q13131 whole entry): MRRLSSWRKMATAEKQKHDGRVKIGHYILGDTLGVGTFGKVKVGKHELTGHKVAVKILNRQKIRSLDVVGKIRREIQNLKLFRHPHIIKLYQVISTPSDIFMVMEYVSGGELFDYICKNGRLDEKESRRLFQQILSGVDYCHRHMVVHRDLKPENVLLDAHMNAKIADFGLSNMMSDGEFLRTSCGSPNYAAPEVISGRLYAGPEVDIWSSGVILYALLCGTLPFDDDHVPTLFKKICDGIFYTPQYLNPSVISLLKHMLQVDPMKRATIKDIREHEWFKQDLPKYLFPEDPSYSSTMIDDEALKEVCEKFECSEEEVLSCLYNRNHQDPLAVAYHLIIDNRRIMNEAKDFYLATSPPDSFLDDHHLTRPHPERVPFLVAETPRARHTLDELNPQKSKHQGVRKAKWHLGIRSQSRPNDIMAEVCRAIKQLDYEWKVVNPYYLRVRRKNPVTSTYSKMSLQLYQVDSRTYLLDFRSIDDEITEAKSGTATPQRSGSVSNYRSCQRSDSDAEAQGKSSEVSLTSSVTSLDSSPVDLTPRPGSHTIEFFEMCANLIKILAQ
Sequence of PIK3CA(H1047Y) (P42336 whole entry H1047Y): as the sequence (P42336 whole entry E542K) above, with K542E, H1047Y counted along it
Sequence of PIK3CA(H1047L) (P42336 whole entry H1047L): as the sequence (P42336 whole entry E542K) above, with K542E, H1047L counted along it

**Q.** `C=CC(=O)Nc1ccc(OC)c(Nc2cc(-c3[nH]c(CC)nc3-c3cccc(NC(=O)c4cccc5c4NC(=O)c4ccccc4N5)c3)ccn2)c1` [Compound 4, N-(3-(5-(2-((5-Acrylamido-2-methoxyphenyl)amino)pyridin-4-yl)-2-ethyl-1H-imidazol-4-yl)phenyl)-11-oxo-10,11-dihydro-5H-dibenzo[b,e][1,4]diazepine-9-carboxamide] was tested. Which remaining binding at 1 µM [1] did it give?
**A.** 83%

**Q.** And the remaining binding at 1 µM [2]?
**A.** 99%

**Q.** And the remaining binding at 1 µM [3]?
**A.** 72%

**Q.** What about the remaining binding at 1 µM [4] of the same compound?
**A.** 100%

**Q.** And the remaining binding at 1 µM [5]?
**A.** 100%

**Q.** What about the remaining binding at 1 µM [6] of the same compound?
**A.** 92%

**Q.** And the remaining binding at 1 µM [7]?
**A.** 100%

**Q.** What about the remaining binding at 1 µM [8] of the same compound?
**A.** 66%

**Q.** And the remaining binding at 1 µM [9]?
**A.** 94%

**Q.** And the remaining binding at 1 µM [10]?
**A.** 7.6%

**Q.** What about the remaining binding at 1 µM [11] of the same compound?
**A.** 100%

**Q.** And the remaining binding at 1 µM [12]?
**A.** 100%

**Q.** And the remaining binding at 1 µM [13]?
**A.** 100%

**Q.** And the remaining binding at 1 µM [14]?
**A.** 100%

**Q.** And the remaining binding at 1 µM [15]?
**A.** 100%

**Q.** What about the remaining binding at 1 µM [16] of the same compound?
**A.** 33%

**Q.** And the remaining binding at 1 µM [17]?
**A.** 90%

**Q.** And the remaining binding at 1 µM [18]?
**A.** 49%

**Q.** And the remaining binding at 1 µM [19]?
**A.** 100%

**Q.** And the remaining binding at 1 µM [20]?
**A.** 62%

**Q.** What about the remaining binding at 1 µM [21] of the same compound?
**A.** 100%

**Q.** What about the remaining binding at 1 µM [22] of the same compound?
**A.** 90%

**Q.** And the “EGFR phosphorylation (Western blot)” value [23]?
**A.** similarly active; also recorded: effectively ablates EGFR (delE746-A750) phosphorylation

**Q.** And the remaining binding at 1 µM [24]?
**A.** 97%

**Q.** What about the remaining binding at 1 µM [25] of the same compound?
**A.** 95%

**Q.** What about the remaining binding at 1 µM [26] of the same compound?
**A.** 70%

**Q.** And the remaining binding at 1 µM [27]?
**A.** 99%

**Q.** What about the remaining binding at 1 µM [28] of the same compound?
**A.** 13%

**Q.** And the remaining binding at 1 µM [29]?
**A.** 19%

**Q.** What about the remaining binding at 1 µM [30] of the same compound?
**A.** 100%

**Q.** What about the remaining binding at 1 µM [31] of the same compound?
**A.** 81%

**Q.** What about the remaining binding at 1 µM [32] of the same compound?
**A.** 98%
